Results from ChEMBL document CHEMBL5579851, “Synthesis and antifungal evaluation of novel triazole derivatives bearing a pyrazole-methoxyl moiety” (Eur J Med Chem, 2024).
In brackets after ≈: the same amount, converted by molar mass.

How the values were obtained:
Format in all cases: functional
Candida albicans [1] = assay: Antifungal activity against Candida albicans SC5314 assessed as inhibition of fungal growth incubated for 48 hrs by CLSI based broth microdilution assay
Candida albicans [2] = assay: Antifungal activity against Candida albicans 10231 assessed as inhibition of fungal growth incubated for 48 hrs by CLSI based broth microdilution assay
Cryptococcus neoformans = assay: Antifungal activity against Cryptococcus neoformans 32609 assessed as inhibition of fungal growth incubated for 72 hrs by CLSI based broth microdilution assay
Nakaseomyces glabratus = assay: Antifungal activity against Candida glabrata 537 assessed as inhibition of fungal growth incubated for 48 hrs by CLSI based broth microdilution assay
Candida parapsilosis = assay: Antifungal activity against Candida parapsilosis 22019 assessed as inhibition of fungal growth incubated for 48 hrs by CLSI based broth microdilution assay; conditions: Lodderomyces parapsilosis
Pichia kudriavzevii = assay: Antifungal activity against Candida krusei 4996 assessed as inhibition of fungal growth incubated for 48 hrs by CLSI based broth microdilution assay
Candida tropicalis = assay: Antifungal activity against Candida tropicalis 8915 assessed as inhibition of fungal growth incubated for 48 hrs by CLSI based broth microdilution assay

SMILES | MIC (Candida albicans [1]) | MIC (Candida albicans [2]) | MIC (Cryptococcus neoformans) | MIC (Nakaseomyces glabratus) | MIC (Candida parapsilosis) | MIC (Pichia kudriavzevii) | MIC (Candida tropicalis)
C[C@@H](OCc1ccn(Cc2ccccc2F)n1)[C@](O)(Cn1cncn1)c1ccc(F)cc1F | ≤ 0.125 µg/mL | 0.25 µg/mL (≈ 0.547 µM) | 0.25 µg/mL (≈ 0.547 µM) | 0.25 µg/mL (≈ 0.547 µM) | 0.5 µg/mL (≈ 1.09 µM) | 8 µg/mL (≈ 17.5 µM) | ~64 µg/mL (≈ 140 µM)
C[C@@H](OCc1ccn(Cc2ccc(F)cc2F)n1)[C@](O)(Cn1cncn1)c1ccc(F)cc1F | ≤ 0.125 µg/mL | 0.25 µg/mL (≈ 0.526 µM) | 0.5 µg/mL (≈ 1.05 µM) | 0.25 µg/mL (≈ 0.526 µM) | 0.5 µg/mL (≈ 1.05 µM) | 4 µg/mL (≈ 8.41 µM) | 0.25 µg/mL (≈ 0.526 µM)
C[C@@H](OCc1ccn(Cc2ccc([N+](=O)[O-])cc2)n1)[C@](O)(Cn1cncn1)c1ccc(F)cc1F | ≤ 0.125 µg/mL | ≤ 0.125 µg/mL | 0.5 µg/mL (≈ 1.03 µM) | ≤ 0.125 µg/mL | 0.25 µg/mL (≈ 0.516 µM) | 4 µg/mL (≈ 8.26 µM) | 0.5 µg/mL (≈ 1.03 µM)
C[C@@H](OCc1ccn(Cc2ccccc2Cl)n1)[C@](O)(Cn1cncn1)c1ccc(F)cc1F | ≤ 0.125 µg/mL | 0.25 µg/mL (≈ 0.528 µM) | 0.25 µg/mL (≈ 0.528 µM) | 0.5 µg/mL (≈ 1.06 µM) | 0.5 µg/mL (≈ 1.06 µM) | 8 µg/mL (≈ 16.9 µM) | 32 µg/mL (≈ 67.5 µM)
C[C@@H](OCc1ccn(Cc2cccc(Cl)c2Cl)n1)[C@](O)(Cn1cncn1)c1ccc(F)cc1F | 0.25 µg/mL (≈ 0.492 µM) | ≤ 0.125 µg/mL | 0.5 µg/mL (≈ 0.984 µM) | 0.5 µg/mL (≈ 0.984 µM) | 0.25 µg/mL (≈ 0.492 µM) | 8 µg/mL (≈ 15.7 µM) | 16 µg/mL (≈ 31.5 µM)
C[C@@H](OCc1ccn(Cc2ccc(OC(F)(F)F)cc2)n1)[C@](O)(Cn1cncn1)c1ccc(F)cc1F | 0.25 µg/mL (≈ 0.478 µM) | 0.25 µg/mL (≈ 0.478 µM) | 0.5 µg/mL (≈ 0.955 µM) | 2 µg/mL (≈ 3.82 µM) | 0.5 µg/mL (≈ 0.955 µM) | 2 µg/mL (≈ 3.82 µM) | 0.5 µg/mL (≈ 0.955 µM)
C[C@@H](OCc1ccn(Cc2ccccc2)n1)[C@](O)(Cn1cncn1)c1ccc(F)cc1F | 0.5 µg/mL (≈ 1.14 µM) | 0.5 µg/mL (≈ 1.14 µM) | 0.25 µg/mL (≈ 0.569 µM) | 0.25 µg/mL (≈ 0.569 µM) | 0.5 µg/mL (≈ 1.14 µM) | 4 µg/mL (≈ 9.1 µM) | 32 µg/mL (≈ 72.8 µM)
C[C@@H](OCc1ccn(Cc2ccc(C(F)(F)F)cc2)n1)[C@](O)(Cn1cncn1)c1ccc(F)cc1F | 0.25 µg/mL (≈ 0.493 µM) | ≤ 0.125 µg/mL | 0.5 µg/mL (≈ 0.985 µM) | 1 µg/mL (≈ 1.97 µM) | 0.5 µg/mL (≈ 0.985 µM) | 4 µg/mL (≈ 7.88 µM) | 0.5 µg/mL (≈ 0.985 µM)

Now from value to compound:

MIC (Candida albicans [1]) | MIC (Candida albicans [2]) | MIC (Cryptococcus neoformans) | MIC (Nakaseomyces glabratus) | MIC (Candida parapsilosis) | MIC (Pichia kudriavzevii) | MIC (Candida tropicalis) | SMILES
≤ 0.125 µg/mL | 0.25 µg/mL (≈ 0.532 µM) | 0.5 µg/mL (≈ 1.06 µM) | 0.5 µg/mL (≈ 1.06 µM) | 1 µg/mL (≈ 2.13 µM) | 8 µg/mL (≈ 17 µM) | > 64 µg/mL | COc1ccc(Cn2ccc(CO[C@H](C)[C@](O)(Cn3cncn3)c3ccc(F)cc3F)n2)cc1
≤ 0.125 µg/mL | 0.5 µg/mL (≈ 1.05 µM) | 0.5 µg/mL (≈ 1.05 µM) | 0.5 µg/mL (≈ 1.05 µM) | 0.5 µg/mL (≈ 1.05 µM) | 16 µg/mL (≈ 33.7 µM) | 0.25 µg/mL (≈ 0.526 µM) | C[C@@H](OCc1ccn(Cc2c(F)cccc2F)n1)[C@](O)(Cn1cncn1)c1ccc(F)cc1F
≤ 0.125 µg/mL | 0.25 µg/mL (≈ 0.551 µM) | 0.5 µg/mL (≈ 1.1 µM) | 4 µg/mL (≈ 8.82 µM) | 0.5 µg/mL (≈ 1.1 µM) | 8 µg/mL (≈ 17.6 µM) | > 64 µg/mL | Cc1cccc(Cn2ccc(CO[C@H](C)[C@](O)(Cn3cncn3)c3ccc(F)cc3F)n2)c1
0.25 µg/mL (≈ 0.507 µM) | 0.5 µg/mL (≈ 1.01 µM) | 0.5 µg/mL (≈ 1.01 µM) | 0.5 µg/mL (≈ 1.01 µM) | 0.5 µg/mL (≈ 1.01 µM) | 8 µg/mL (≈ 16.2 µM) | 64 µg/mL (≈ 130 µM) | C[C@@H](OCc1ccn(Cc2c(F)cc(F)cc2F)n1)[C@](O)(Cn1cncn1)c1ccc(F)cc1F
≤ 0.125 µg/mL | ≤ 0.125 µg/mL | 0.5 µg/mL (≈ 1.06 µM) | 0.5 µg/mL (≈ 1.06 µM) | 0.5 µg/mL (≈ 1.06 µM) | 4 µg/mL (≈ 8.44 µM) | 0.25 µg/mL (≈ 0.528 µM) | C[C@@H](OCc1ccn(Cc2cccc(Cl)c2)n1)[C@](O)(Cn1cncn1)c1ccc(F)cc1F
